Source: patent publication US8853259B2, “Metformin derivatives for treating diabetes and diabetes complications” (priority 2013, dated 2014)

Assay: Hygroscopicity of the isolated solid on exposure to air
Format: physicochemical
Conditions: light yellow foamy solid from Method 1; turns into gummy residue on exposure to air
Method: Method 1: Metformin free base (1.29 g, 0.010 mol) was taken in methanol (15 mL) and while stirring L-Glutamic acid (0.74 g, […]) was added as solid. Lipoic acid (1.03 g, […]) was separately dissolved in methanol (15 mL) and added to this mixture through a in-line syringe filter (to remove polymeric material, if any). The mixture was continued to stir for 30 min. […] Metformin.L-Glutamic acid.R-Lipoic acid salt (2.9 g) was obtained as light yellow foamy solid. […] The residue was suspended in acetonitrile (30 mL) and stirred for 18 h. Filtered the pale yellow solid and dried in vacuum for 16 h to get 2.32 g of 3. ^1H NMR (200 MHz, D2O) δ 1.15-2.1 (10H, m), δ 2.1-2.42 (5H, m), δ2.88 (12H, s), δ 2.95-3.12 (1H, m) δ 3.48-3.62 (2H, m); ^13C NMR (200 MHz, D2O) δc 25.86, 27.25, 28.68, 33.81, 34.14, 37.66, 38.34, 40.51, 54.95, 56.93, 158.63, 160.28, 174.80, 181.44, 183.81.

For “metformin-L-glutamic acid-R (+) lipoic acid salt”, the hygroscopicity was “high hygroscopic”.
